This is an account of results in patent US20220409521A1, “COMPOSITION FOR COSMETICS” (FE:I BEAUTY TECH, INC., priority 2021, published 2022).

The test system of this experiment is Primary human dermal fibroblast (HDF) cells. As to the kind of experiment: Ferritin induction in HDF cells (ferritin and protein by ELISA). In kind it is cell-based. To be noted: Example 1; 5 μM in culture media, 18 hours; vs cells with no treatment. As to the method:
Primary human dermal fibroblast (HDF) cells were cultured in Dulbecco's modified eagle medium (DMEM) with GlutaMAX™ and 10% Fetal Bovine Serum (FBS) and 1% Streptomycin (antibiotics). Before treatment, cells were seeded in a 12-well plate (1 ml culture media and surface area of the well is approximately 4.0 cm^2 per well) overnight. After washing twice with cold phosphate buffered saline (PBS), HDF cells were starved in 0.1% FBS for overnight. Subsequently, cells were treated with ferrous sulfate septahydrate (FeSO4·7H2O) at a final concentration of 5 μM for additional 18 hours. Cells with no treatment were used as a control. Cells were then washed with PBS and lysed. Levels of ferritin and protein were measured by using commercially available enzyme-linked immunosorbent assays (ELISA) kits and quantitated with standard curves constructed with human liver ferritin and human serum albumin as standards. The results were expressed as μg ferritin per mg protein and are show in FIG. 2.
The two iron oxides were premixed homogeneously in a 50% (v/v) of water and tertraethylene glycol and incubated at 3 mg/ml overnight at room temperature in a sodium acetate buffer (10 mM, pH 5.0), mimicking the pHs of acid rain or sweat. […] After the foregoing treatment, cells were collected and levels of ferritin and proteins in cells were measured and calculated as described in Example 1. […]
A general note: In an ELISA, binding on a coated surface is turned into a signal by an enzyme label.

Regarding `O.O.O.O.O.O.O.O=S(=O)([O-])[O-].[Fe+2]` [ferrous sulfate, ferrous sulfate septahydrate (FeSO4·7H2O)], the “increase in level of ferritin compared to the control” value turned out to be 570%.
